{"source": "patent US20220143116A1", "about": "(priority 2019, published 2022)", "key": {"[1]": {"test_system": "B16TK-hAPOBEC3B tumors", "set-up": "species or system C57BL/6 mice", "conditions": "mouse, in vivo"}, "[2]": {"test_system": "B16TK-hAPOBEC3B subcutaneous tumors", "set-up": "species or system C57BL/6 mice", "conditions": "mouse, in vivo"}, "[3]": {"test_system": "B16TK cells", "format": "cell-based, murine"}, "[4]": {"test_system": "B16TK (scrambled shRNA) or B16TK (shRNA APOBEC3) tumors", "set-up": "species or system C57Bl/6 mice", "conditions": "mouse, in vivo"}}, "note": "Where “and” joins values, the source holds several entries; their conditions need not be identical. Equal entries are not always repeated."}
{"smiles": "Nc1nc(O)c2ncn(COC(CO)CO)c2n1", "note": "[ganciclovir]", "values": [{"measurement": "tumor growth following GCV treatment", "setting": "[1]", "result": "grew significantly more quickly"}, {"measurement": "tumor growth following GCV treatment", "setting": "[2]", "result": "grew significantly more quickly"}, {"measurement": "sensitivity of B16TK cells to treatment", "setting": "[3]", "result": "sensitive"}, {"measurement": "long term survivors", "setting": "[4]", "result": "0/7 and 4/7"}]}
